Source: patent US12606528B2, “Methods and materials for inhibiting NF-kB activity” (University of Pittsburgh - Of the Commonwealth System of …, priority 2019, dated 2026)
Where two headings read alike, the source gives them in different places.

Columns and labels:
NF-κB = NF-κB assay: THP1-NF-κB-LUC cells, LPS-stimulated secreted luciferase; assay type: cell-based; conditions: THP1-NF-κB-LUC cells, read-out: IC50 (NF-κB assay)
Method in brief: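 THP1-NF-κB-LUC cells (25k/well) were pretreated with compounds for 2 h, then stimulated with LPS (10 ng/mL) for 18 h. Secreted luciferase was measured and normalized to vehicle, and IC50 was fitted from the concentration series.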

TNF release = experiment: TNF assay: TNF release from LPS-stimulated human PBMCs (TNF ELISA); assay type: cell-based; conditions: PBMC, read-out: IC50 (TNF assay)
Method in brief: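 Human PBMCs at 10k/well pretreated with compound dilutions 2 h, then stimulated with LPS (10 ng/mL) for 18 h. TNF in supernatants quantified by ELISA; IC50 for inhibition of TNF release fitted from concentration–response.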

[1] = LPS-stimulated human PBMCs, TNF ELISA
[2] = compounds 2 hours before LPS (10 ng/mL) for 18 hours, secreted luciferase
[3] = human PBMCs, compounds 2 hours before LPS (10 ng/ml) for 18 hours, supernatant TNF ELISA

| SMILES | IC50 (NF-κB; LPS-stimulated) [µM] | IC50 (TNF release; [1]) [µM] | IC50 (NF-κB; [2]) [µM] | IC50 (TNF release; [3]) [µM] |
| --- | --- | --- | --- | --- |
| CN1CCN(C(=O)c2ccc3nc(-c4ccc(F)cc4)c(-c4ccc(Cl)cc4)nc3c2)CC1 [BC19317] | < 0.1 | > 10 |  |  |
| CN1CCN(C(=O)c2ccc3nc(-c4ccc(F)cc4)c(-c4ccc(F)cc4F)nc3c2)CC1 [BC19318] | < 0.1 | > 10 |  |  |
| CCc1ccc(-c2nc3cc(C(=O)N4CCN(C)CC4)ccc3nc2-c2ccc(F)cc2)cc1 [BC19319] | 1 to 10 | > 10 |  |  |
| O=C(O)c1cccc2nc(-c3ccc(F)cc3)c(-c3ccc(F)cc3)nc12 [BC19320] | > 10 | > 10 |  |  |
| C#CCNC(=O)c1cccc2nc(-c3ccc(F)cc3)c(-c3ccc(F)cc3)nc12 [BC19321] | 1 to 10 | > 10 |  |  |
| Cc1ccc(S(=O)(=O)c2c(O)[nH]c3ncccc3c2=O)cc1F [BC19322] |  |  | 1 to 10 | > 10 |
| O=c1c(S(=O)(=O)c2ccc(F)cc2)c(O)[nH]c2ncccc12 [BC19323] |  |  | > 10 | > 10 |
| Nc1cccc2cc(S(=O)(=O)c3ccccc3)cnc12 [BC19324] |  |  | > 10 | 0.1 to 1 |
| CNc1cccc2cc(S(=O)(=O)c3ccccc3)cnc12 [BC19325] |  |  | > 10 | 1 to 10 |
| CN(C)c1cccc2cc(S(=O)(=O)c3ccccc3)cnc12 [BC19326] |  |  | > 10 | 1 to 10 |
| O=S(=O)(c1cccc(F)c1)c1nc(-c2ccccc2)oc1[S+]([O-])C1CCCCC1 (stereo not shown) [BC19327] | 1 to 10 | 1 to 10 |  |  |
| O=S(=O)(c1cccc(F)c1)c1nc(-c2ccccc2)oc1S(=O)(=O)C1CCCCC1 [BC19328] | < 0.1 | 0.1 to 1 |  |  |
| CS(=O)(=O)c1oc(-c2ccccc2)nc1S(=O)(=O)c1ccc(Cl)cc1 [BC19329] | < 0.1 | < 0.1 |  |  |
| O=S(=O)(CC1CC1)c1oc(-c2ccccc2)nc1S(=O)(=O)c1ccc(Cl)cc1 [BC19330] | 0.1 to 1 | 0.1 to 1 |  |  |
| COCCS(=O)(=O)c1oc(-c2ccccc2)nc1S(=O)(=O)c1ccc(Cl)cc1 [BC19331] | < 0.1 | < 0.1 |  |  |
| CCC[S+]([O-])c1oc(-c2ccc(F)cc2)nc1S(=O)(=O)c1ccc(Cl)cc1 (stereo not shown) [BC19332] | 0.1 to 1 | < 0.1 |  |  |
| COCCS(=O)(=O)c1oc(-c2ccc(F)cc2)nc1S(=O)(=O)c1ccc(Cl)cc1 [BC19333] | < 0.1 | < 0.1 |  |  |
| CC(C)S(=O)(=O)c1sc(-c2ccccc2)nc1S(=O)(=O)c1ccc(F)c(F)c1 [BC19334] | > 10 | 1 to 10 |  |  |
| Cc1ccc(Cl)cc1NC(=O)CS(=O)(=O)c1[nH]c(-c2ccccc2)nc1S(=O)(=O)c1ccccc1 [BC19335] | > 10 | > 10 |  |  |

| SMILES | IC50 (NF-κB; LPS-stimulated) [µM] | IC50 (TNF release; [1]) [µM] | IC50 (NF-κB; [2]) [µM] | IC50 (TNF release; [3]) [µM] |
| --- | --- | --- | --- | --- |
| COc1cccc(-c2nc(S(=O)(=O)c3ccc(Cl)cc3)c(S(=O)(=O)C(C)C)[nH]2)c1 [BC19336] | > 10 | > 10 |  |  |
| COCC[S+]([O-])c1[nH]c(-c2cccc(OC)c2)nc1S(=O)(=O)c1ccc(Cl)cc1 (stereo not shown) [BC19337] | > 10 | > 10 |  |  |
| C[S+]([O-])c1[nH]nc(N)c1S(=O)(=O)c1ccccc1 (stereo not shown) [BC19338] | > 10 | > 10 |  |  |
| CS(=O)(=O)c1[nH]nc(N)c1S(=O)(=O)c1ccccc1 [BC19339] | > 10 | > 10 |  |  |
| Cc1nc2c(S(=O)(=O)c3ccccc3)c([S+](C)[O-])nn2c(C)c1C (stereo not shown) [BC19340] | > 10 | > 10 |  |  |
| Cc1cc(O)n2nc([S+](C)[O-])c(S(=O)(=O)c3ccccc3)c2n1 (stereo not shown) [BC19341] | > 10 | > 10 |  |  |
| C[S+]([O-])c1oc(-c2cccc(F)c2)nc1S(=O)(=O)c1ccc(Cl)cc1 (stereo not shown) [BC19342] | < 0.1 | < 0.1 |  |  |
| CS(=O)(=O)c1oc(-c2cccc(F)c2)nc1S(=O)(=O)c1ccc(Cl)cc1 [BC19343] | 1 to 10 | < 0.1 |  |  |
| CCC[S+]([O-])c1oc(-c2cccc(F)c2)nc1S(=O)(=O)c1ccc(Cl)cc1 (stereo not shown) [BC19344] | 0.1 to 1 | 0.1 to 1 |  |  |
| CCCS(=O)(=O)c1oc(-c2cccc(F)c2)nc1S(=O)(=O)c1ccc(Cl)cc1 [BC19345] | 0.1 to 1 | 0.1 to 1 |  |  |
| CC(C)[S+]([O-])c1oc(-c2cccc(F)c2)nc1S(=O)(=O)c1ccc(Cl)cc1 (stereo not shown) [BC19346] | < 0.1 | < 0.1 |  |  |
| CC(C)C[S+]([O-])c1oc(-c2cccc(F)c2)nc1S(=O)(=O)c1ccc(Cl)cc1 (stereo not shown) [BC19347] | < 0.1 | < 0.1 |  |  |
| CC(C)CS(=O)(=O)c1oc(-c2cccc(F)c2)nc1S(=O)(=O)c1ccc(Cl)cc1 [BC19348] | < 0.1 | 0.1 to 1 |  |  |
| O=S(=O)(c1ccc(Cl)cc1)c1nc(-c2cccc(F)c2)oc1[S+]([O-])CC1CC1 (stereo not shown) [BC19349] | 0.1 to 1 | < 0.1 |  |  |
| O=S(=O)(CC1CC1)c1oc(-c2cccc(F)c2)nc1S(=O)(=O)c1ccc(Cl)cc1 [BC19350] | 1 to 10 | 1 to 10 |  |  |
| COCC[S+]([O-])c1oc(-c2cccc(F)c2)nc1S(=O)(=O)c1ccc(Cl)cc1 (stereo not shown) [BC19351] | 0.1 to 1 | < 0.1 |  |  |
| COCCS(=O)(=O)c1oc(-c2cccc(F)c2)nc1S(=O)(=O)c1ccc(Cl)cc1 [BC19352] | 0.1 to 1 | < 0.1 |  |  |
| O=S(=O)(c1ccc(Cl)cc1)c1nc(-c2cccc(F)c2)oc1[S+]([O-])C1CCCCC1 (stereo not shown) [BC19353] | 0.1 to 1 | 0.1 to 1 |  |  |
| CC1Oc2cc(S(=O)(=O)Nc3ccc(OC(F)(F)F)cc3)c(Cl)cc2NC1=O (stereo not shown) [BC19354] |  |  | < 0.1 | > 10 |

| SMILES | IC50 (NF-κB; LPS-stimulated) [µM] | IC50 (TNF release; [1]) [µM] | IC50 (NF-κB; [2]) [µM] | IC50 (TNF release; [3]) [µM] |
| --- | --- | --- | --- | --- |
| CCOc1ccc(NS(=O)(=O)c2cc(Cl)cc3c2OC(C)C(=O)N3)cc1 (stereo not shown) [BC19355] |  |  | < 0.1 | > 10 |
| CC1Oc2cc(S(=O)(=O)NCc3ccc(F)cc3F)c(Br)cc2NC1=O (stereo not shown) [BC19356] |  |  | 1 to 10 | > 10 |
| CC1Oc2cc(S(=O)(=O)NCc3ccc(OC(F)(F)F)cc3)c(Br)cc2NC1=O (stereo not shown) [BC19357] |  |  | > 10 | > 10 |
| CC1Oc2cc(S(=O)(=O)NCc3ccc(C(F)(F)F)cc3)c(Br)cc2NC1=O (stereo not shown) [BC19358] |  |  | > 10 | > 10 |
| CC1Oc2cc(S(=O)(=O)NCCc3ccc(OC(F)(F)F)cc3)c(Br)cc2NC1=O (stereo not shown) [BC19359] |  |  | > 10 | > 10 |
| CC1Oc2cc(S(=O)(=O)NC3CCC(O)CC3)c(Br)cc2NC1=O (stereo not shown) [BC19360] |  |  | > 10 | > 10 |
| CC1Oc2cc(S(=O)(=O)NC3CCC(C(C)(C)C)CC3)c(Br)cc2NC1=O (stereo not shown) [BC19361] |  |  | > 10 | > 10 |
| CC1Oc2c(cc(Br)cc2S(=O)(=O)NCc2ccc(F)cc2F)NC1=O (stereo not shown) [BC19362] |  |  | 0.1 to 1 | > 10 |
| CC1Oc2c(cc(Br)cc2S(=O)(=O)NCc2ccc(OC(F)(F)F)cc2)NC1=O (stereo not shown) [BC19363] |  |  | < 0.1 | > 10 |
| CC1Oc2c(cc(Br)cc2S(=O)(=O)NCCc2ccc(OC(F)(F)F)cc2)NC1=O (stereo not shown) [BC19364] |  |  | > 10 | > 10 |
| CC1Oc2c(cc(Br)cc2S(=O)(=O)NCc2ccc(C(F)(F)F)cc2)NC1=O (stereo not shown) [BC19365] |  |  | 1 to 10 | > 10 |
| CC1Oc2c(cc(Br)cc2S(=O)(=O)NC2CCC(O)CC2)NC1=O (stereo not shown) [BC19366] |  |  | > 10 | > 10 |
| CC1Oc2c(cc(Br)cc2S(=O)(=O)NC2CCC(C(C)(C)C)CC2)NC1=O (stereo not shown) [BC19367] |  |  | > 10 | > 10 |
| CCC1Oc2cc(S(=O)(=O)NCc3ccc(F)cc3F)c(Br)cc2NC1=O (stereo not shown) [BC19368] |  |  | > 10 | > 10 |
| CCC1Oc2cc(S(=O)(=O)NCc3ccc(OC(F)(F)F)cc3)c(Br)cc2NC1=O (stereo not shown) [BC19369] |  |  | > 10 | > 10 |
| CCC1Oc2cc(S(=O)(=O)NCc3ccc(C(F)(F)F)cc3)c(Br)cc2NC1=O (stereo not shown) [BC19370] |  |  | > 10 | > 10 |
| CCC1Oc2cc(S(=O)(=O)Nc3ccc(C(F)(F)F)cc3Cl)c(Br)cc2NC1=O (stereo not shown) [BC19371] |  |  | 1 to 10 | > 10 |
| CCC1Oc2cc(S(=O)(=O)NC3CCC(O)CC3)c(Br)cc2NC1=O (stereo not shown) [BC19372] |  |  | > 10 | > 10 |
